Publication PMC5665883, “Antithrombotic properties of JJ1, a potent and novel thrombin inhibitor” (Scientific Reports, 2017)
Marks after values point to notes of the source that are not given here.

Tests used:
Trypsin = test: Chromogenic substrate assay, Ki (Dixon); format: biochemical, human; details: for Ki: Trypsin, mean ± SD (n = 5)
Description: (§1) Chromogenic substrate assays were performed using a Labsystems IEMS (Cergy Pontoise, France) microtiter plate reader. K i values were calculated according to the method of Dixon[65]. In each assay, the compound was tested at a minimum of seven concentrations, in duplicate, to obtain an inhibition curve. The following general procedures were adopted for each assay. In a 96-well microtiter plate, 25 μL of inhibitor solution or buffer was added to 50 μL of substrate. The enzyme solution (25 μL) was added just before the plate was placed in the microtiter plate reader for 1 h at 37 °C. The hydrolysis of the substrate yields p-nitroaniline, which was continuously monitored spectrophotometrically at 405 nm. The maximal initial reaction rates were calculated and expressed as millioptical density per minute.

Factor Xa = target: T1, Factor Xa (Homo sapiens, UniProt P00742); test: Chromogenic substrate assay, Ki (Dixon); format: biochemical; details: for Ki: Factor Xa
T1 construct: thrombin versus trypsin, factor Xa, elastase, plasmin, protein Ca, streptokinase, tPA, and urokinase; purchased Haematologic Technologies (Essex Junction, VT)
T1 sequence (P00742 235-488 limits assumed): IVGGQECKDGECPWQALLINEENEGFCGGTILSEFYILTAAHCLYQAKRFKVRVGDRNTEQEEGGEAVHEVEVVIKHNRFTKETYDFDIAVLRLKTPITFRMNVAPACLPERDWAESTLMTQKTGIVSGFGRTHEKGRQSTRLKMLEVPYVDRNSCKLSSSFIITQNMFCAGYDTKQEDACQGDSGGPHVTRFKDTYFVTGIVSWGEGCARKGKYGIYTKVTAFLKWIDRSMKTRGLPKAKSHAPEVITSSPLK
T1 sequence (P00742 41-179 limits assumed): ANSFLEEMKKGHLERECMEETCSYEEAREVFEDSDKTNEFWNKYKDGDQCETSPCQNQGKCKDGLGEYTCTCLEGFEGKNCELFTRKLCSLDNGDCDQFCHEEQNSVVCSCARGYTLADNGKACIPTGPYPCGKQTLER

Plasmin = target: T2, Plasmin (Homo sapiens, UniProt P00747); test: Chromogenic substrate assay, Ki (Dixon); format: biochemical; details: for Ki: Plasmin
T2 construct: thrombin versus trypsin, factor Xa, elastase, plasmin, protein Ca, streptokinase, tPA, and urokinase
T2 sequence (P00747 581-810 limits assumed): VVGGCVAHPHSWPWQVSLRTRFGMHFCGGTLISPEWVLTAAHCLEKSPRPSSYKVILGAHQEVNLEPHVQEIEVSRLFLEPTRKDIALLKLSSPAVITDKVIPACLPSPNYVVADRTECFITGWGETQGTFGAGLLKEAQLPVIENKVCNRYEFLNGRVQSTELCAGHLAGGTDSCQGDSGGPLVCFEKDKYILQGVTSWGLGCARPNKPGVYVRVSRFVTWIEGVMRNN
T2 sequence (P00747 97-580 limits assumed): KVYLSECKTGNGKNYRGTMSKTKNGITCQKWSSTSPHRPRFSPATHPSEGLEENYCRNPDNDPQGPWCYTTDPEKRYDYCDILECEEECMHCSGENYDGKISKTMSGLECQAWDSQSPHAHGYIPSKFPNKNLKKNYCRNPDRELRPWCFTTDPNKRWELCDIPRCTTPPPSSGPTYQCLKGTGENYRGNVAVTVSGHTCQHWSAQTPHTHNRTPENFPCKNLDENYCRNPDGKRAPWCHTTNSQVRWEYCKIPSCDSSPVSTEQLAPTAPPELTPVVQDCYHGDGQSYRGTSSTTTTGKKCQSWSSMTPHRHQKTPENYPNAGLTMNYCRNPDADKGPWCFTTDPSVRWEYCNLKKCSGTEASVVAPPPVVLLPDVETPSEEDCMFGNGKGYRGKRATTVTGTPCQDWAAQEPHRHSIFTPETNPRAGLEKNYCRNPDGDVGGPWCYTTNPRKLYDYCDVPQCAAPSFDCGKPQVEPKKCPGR

Protein Ca = target: T3, Protein Ca (Homo sapiens, UniProt P04070); test: Chromogenic substrate assay, Ki (Dixon); format: biochemical; details: for Ki: Protein Ca
T3 construct: thrombin versus trypsin, factor Xa, elastase, plasmin, protein Ca, streptokinase, tPA, and urokinase
T3 sequence (P04070 212-450 limits assumed): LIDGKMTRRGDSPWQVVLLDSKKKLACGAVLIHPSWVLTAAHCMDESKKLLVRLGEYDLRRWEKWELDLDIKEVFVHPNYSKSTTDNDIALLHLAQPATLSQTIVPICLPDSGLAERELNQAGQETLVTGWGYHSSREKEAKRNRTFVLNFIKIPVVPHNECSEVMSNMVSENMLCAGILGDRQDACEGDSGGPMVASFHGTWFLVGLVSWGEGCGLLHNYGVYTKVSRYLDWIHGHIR
T3 sequence (P04070 43-197 limits assumed): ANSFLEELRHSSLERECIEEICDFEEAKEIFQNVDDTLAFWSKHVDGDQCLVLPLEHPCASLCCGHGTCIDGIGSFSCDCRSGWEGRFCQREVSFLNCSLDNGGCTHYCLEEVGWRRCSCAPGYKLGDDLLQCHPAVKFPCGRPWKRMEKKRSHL

Streptokinase = Streptokinase (Homo sapiens, UniProt P00747); test: Chromogenic substrate assay, Ki (Dixon); format: biochemical; details: for Ki: Streptokinase
Chain of Streptokinase (P00747 581-810 limits assumed): as the sequence (P00747 581-810 limits assumed) above

tPA = tPA (Homo sapiens, UniProt P00750); test: Chromogenic substrate assay, Ki (Dixon); format: biochemical; details: for Ki: tPA
Chain of tPA (P00750 36-562): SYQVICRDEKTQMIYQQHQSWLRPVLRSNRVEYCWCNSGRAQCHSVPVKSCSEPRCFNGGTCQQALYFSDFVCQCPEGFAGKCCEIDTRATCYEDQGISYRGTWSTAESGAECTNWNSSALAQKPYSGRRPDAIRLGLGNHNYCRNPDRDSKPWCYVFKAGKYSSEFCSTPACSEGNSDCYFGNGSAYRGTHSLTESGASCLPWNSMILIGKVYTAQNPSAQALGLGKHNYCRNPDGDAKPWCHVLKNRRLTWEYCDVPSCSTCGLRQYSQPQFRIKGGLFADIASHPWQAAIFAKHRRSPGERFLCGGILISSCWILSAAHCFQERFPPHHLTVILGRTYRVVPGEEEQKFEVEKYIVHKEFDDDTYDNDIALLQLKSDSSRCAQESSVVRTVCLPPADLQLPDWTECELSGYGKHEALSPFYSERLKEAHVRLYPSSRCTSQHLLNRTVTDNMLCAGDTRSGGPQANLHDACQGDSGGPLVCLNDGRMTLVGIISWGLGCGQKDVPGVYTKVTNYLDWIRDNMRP

Urokinase = Urokinase (Homo sapiens, UniProt P00749); test: Chromogenic substrate assay, Ki (Dixon); format: biochemical; details: for Ki: Urokinase
human plasma [1] = test: In vitro aPTT clotting time; format: biochemical; details: in vitro, 5.0 μM
Description: (§2) The aPTT and PT were determined using a Thrombotimer (Behnk Elektronik, Norderstedt, Germany) in accordance with the manufacturer’s instructions and as previously described. Briefly, citrated normal human plasma (90 μL) was mixed with 10 μL JJ1 and incubated for 1 min at 37 °C. Subsequently, the aPTT assay reagent (100 μL) was added, the plasma sample was incubated for an additional 1 min at 37 °C, 20 mM CaCl2 (100 μL) was added, and the clotting times were recorded. For the PT assays, citrated normal human plasma (90 μL) was mixed with 10 μL JJ1 stock solution and was incubated for 1 min at 37 °C. The PT assay reagent (200 μL), which had been pre-incubated for 10 min at 37 °C, was subsequently added and the clotting time was recorded. The PT results were expressed in seconds and as International Normalized Ratios (INR): INR = (PT sample/PT control)^ISI, where ISI = international sensitivity index. The aPTT results were also expressed in seconds. All experimental protocols (KNUH 2012-01-010) were approved by the Institutional Review Board of Kyungpook National University Hospitals (Daegu, Republic of Korea).

human plasma [2] = test: In vitro PT clotting time; format: biochemical; details: in vitro, 5.0 μM
Description: as §2

[3] = In vivo tail bleeding time; set-up: species or system C57BL/6 mice; details: mice, i.v. injection
Description: Tail bleeding times were measured by using the method of Dejana et al.[63],[64]. Briefly, C57BL/6 mice were fasted overnight prior to the experiments. One hour after the i.v. administration of JJ1, the tails of the mice were transected at 2 mm from their tips. The bleeding time was defined as the time elapsed until the bleeding stopped. Bleeding times exceeding 15 min were recorded as lasting for 15 min.

[4] = FeCl3-induced arterial thrombosis model; format: in vivo, C57BL/6 mice; details: mice, 150 μg/mouse
Description: The FeCl3-induced thrombosis mouse model was established as previously described. Male C57BL/6 mice were fasted overnight and were administered JJ1 in DMSO by intravenous injection. Then, mice were anesthetized using 3% isoflurane (Forane®, Choongwae Pharma. Corp., Seoul, Korea) and injected intravenously with 0.1 mL 0.1% rhodamine 6 G (Sigma). A testicular artery (200 μm in diameter) was carefully exposed and a cotton thread (200 μm in diameter) saturated with 0.25 mol/L FeCl3 was applied to the adventitial surface. After 5 min, the cotton thread was removed, and the wound was flushed with saline solution. Thrombus formation was monitored at 35 °C by 3-dimensional imaging as previously described. The size and time of thrombus formation were monitored, and the findings were scored as follows: no thrombus, 0; small thrombus (50 μm × 75 μm), 1; medium-sized thrombus (100 μm × 150 μm), 2; large thrombus (200 μm × 300 μm), 3. The time from FeCl3-mediated endothelial injury to occlusion of the testicular artery by a large thrombus was measured.

[5] = set-up: method as in PMID 21948594; details: not reported in publications; cited from earlier work
[6] = system: neuropeptide Y receptor type 5; set-up: method as in PMID 21948594; details: not reported in publications; cited from earlier work
human α-thrombin = target: T4, human α-thrombin (Homo sapiens, UniProt P00734); test: Chromogenic substrate assay, Ki (Dixon); format: biochemical
T4 construct: purchased Haematologic Technologies (Essex Junction, VT)

Elastase = target: T5, Elastase (Homo sapiens, UniProt P08246); test: Chromogenic substrate assay, Ki (Dixon); format: biochemical; details: K i Elastase/K i α-thrombin
T5 sequence (P08246 30-247): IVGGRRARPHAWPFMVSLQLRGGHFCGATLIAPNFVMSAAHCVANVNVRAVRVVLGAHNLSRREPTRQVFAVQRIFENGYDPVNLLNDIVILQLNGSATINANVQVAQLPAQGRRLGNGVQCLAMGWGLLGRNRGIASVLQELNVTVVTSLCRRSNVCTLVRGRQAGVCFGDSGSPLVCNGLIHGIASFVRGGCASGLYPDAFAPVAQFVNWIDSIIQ
Description: as §1

thrombin [7] = target: T6, thrombin (Homo sapiens, UniProt P00734); test: Thrombin activity assay (amidolytic activity, S-2238); format: biochemical; details: α-Thrombin, chromogenic substrate; read-out: IC50, inhibition of amidolytic activity of thrombin (converted)
T6 construct: thrombin solution (150 μL, 10 U/mL) was added; purchased Haematologic Technologies (Essex Junction, VT)
Description: Following a 2-min incubation at 37 °C, thrombin solution (150 μL, 10 U/mL) was added, followed by incubation at 37 °C for 1 min. A solution of the thrombin substrate, S-2238, (150 μL, 1.5 mM) solution was subsequently added and the absorbance at 405 nm was monitored for 120 s using a spectrophotometer (TECAN, Männedorf, Switzerland).

human plasma [8] = test: In vitro aPTT clotting time; format: biochemical; details: at the maximum antithrombotic dose
human plasma [9] = test: In vitro PT clotting time; format: biochemical; details: at the maximum antithrombotic dose
thrombin [10] = target: T6, thrombin; test: Enzyme-based assay of purchased virtual screening molecules, single dose; format: biochemical; details: single concentration of 50 μM
Description: Prior to the high-throughput virtual screening, we selected the best crystal structure for docking with DOCK 3.6[17] using the selected inhibitors and their physicochemically matched but topologically different decoys. […] Because the earlier enrichment of true positives is more important for high throughput SBVS, we used the value of LogAUC as a metric, selecting 2CF9-H[18] as the best structure. […] Besides, the enrichment at 1% (EF1) was 37.1. The values of LogAUC and EF1 were approximately two-fold higher than the averages (26.1 for LogAUC and 17.1 for EF1) (Figs 1 and S1). Some structures had higher AUC values than that of 2CF9-H, but the value of LogAUC was the highest for 2CF9-H (Fig. S1). The optimization necessitated the calculations of more than 2 million protein and ligand pairs. The high speed of DOCK 3.6 and the in-house Linux cluster system consisting of 128 cores efficiently managed the calculations in three days. Of the candidate molecules having the lowest scores in the high-throughput SBVS, we chose the molecules with desirable geometries and physicochemical properties by a simple manual and visual inspection. […] It is known that the scoring function of virtual screening itself is insufficient to capture such an abnormality. Table S1 and Fig. S2 list the top 40 molecules, which were selected through high-throughput SBVS; we purchased these molecules to measure enzymatic inhibitory activity.

With `CC1CNc2c(cccc2S(=O)(=O)N[C@@H](CCCNC(=N)N)C(=O)N2CC[C@@H](C)C[C@@H]2C(=O)O)C1` (stereo partly drawn) [Argatroban] the Ki (Trypsin) was 4200 ± 500 nM, the Ki (Factor Xa) was greater than 250000 nM and the Ki (Plasmin) was greater than 250000 nM. The Ki (Protein Ca) was greater than 250000 nM, the Ki (Streptokinase) was greater than 250000 nM and the Ki (tPA) was greater than 250000 nM. The Ki (Urokinase) was greater than 250000 nM, the aPTT (human plasma [1]) was 61.4 ± 0.8 s and the PT (human plasma [2]) was 27.4 ± 0.7 s. The “PT (INR)” value (human plasma [2]) was 7.40* INR, the Tail bleeding time ([3]; 5.08 μg/mouse) was 62.2 ± 0.8 s and the Thrombus size score ([4]; 60 min after FeCl3-treatment, score 0-3) was 1.15 ± 0.12. The “Time to large thrombus formation” value ([4]; FeCl3-induced thrombosis) was 61.2 ± 5.1 min.

For `c1ccc2c(NC3CCCC3)nc(Nc3ccc4c(c3)OCO4)nc2c1` [CHEMBL578118], the “Activity linked in ChEMBL” value [5] is given as “antimalarial effects”.

In the case of `c1ccc(Nc2nc(NC3CCCCC3)nc3ccccc23)cc1` [CHEMBL17914], the “Activity linked in ChEMBL” value [6] is listed as “linked with the inhibition of neuropeptide Y receptor type 5”.

In the case of `Oc1ccccc1Nc1nc(NC2CCCC2)c2ccccc2n1` [CHEMBL581623], the “Activity linked in ChEMBL” value [5] is given as “antimalarial effects”.

Work on `CN[C@H](Cc1ccccc1)C(=O)N1CCC[C@H]1C(=O)N[C@H](C=O)CCCN=C(N)N` [Efegatran] yielded a Selectivity ratio (human α-thrombin; K i enzyme/K i α-thrombin) of 1, a Ki (human α-thrombin; mean ± SD (n = 5)) of 17 ± 0.3 nM and a Selectivity ratio (Trypsin; K i Trypsin/K i α-thrombin) of 0.65. For the same compound, the Ki (Trypsin) was 11 ± 4.1 nM, the Selectivity ratio (Elastase) was >14,000 and the Selectivity ratio (Factor Xa) was 5411. It also gave a Ki (Factor Xa) of 92000 ± 9000 nM, a Selectivity ratio (Plasmin) of 28 and a Ki (Plasmin) of 480 ± 40 nM. It also gave a Selectivity ratio (Protein Ca) of 70, a Ki (Protein Ca) of 1200 ± 150 nM and a Selectivity ratio (Streptokinase) of 82. It also gave a Ki (Streptokinase) of 1400 ± 110 nM, a Selectivity ratio (tPA) of 88 and a Ki (tPA) of 1500 ± 300 nM. It also gave a Selectivity ratio (Urokinase) of 147, a Ki (Urokinase) of 2500 ± 300 nM and an IC50 (thrombin [7]) of 25 nM. The aPTT (human plasma [1]) was 44.2 ± 0.6 s, the PT (human plasma [2]) was 19.2 ± 0.4 s and the “PT (INR)” value (human plasma [2]) was 3.15* INR. The Tail bleeding time ([3]; 4.17 μg/mouse) was 47.4 ± 1.1 s, the “Prolongation of aPTT” value (human plasma [8]) was 1.86 fold and the “Prolongation of PT” value (human plasma [9]) was 1.61 fold.

In the case of `CCN(c1cccc(C)c1)S(=O)(=O)c1cc([N+](=O)[O-])ccc1C` [ZINC04991109], the “Degree of inhibition in the enzyme-based assay” value (thrombin [10]) is reported as “inhibitory effects”.

With `COc1ccc(C(=O)NCc2ccco2)cc1S(=O)(=O)N1CCCCC1` [ZINC09063750] the “Degree of inhibition in the enzyme-based assay” value (thrombin [10]) was “inhibitory effects”.
